This is an account of results in patent publication US20030162834A1, “Natural physiologically active material effective on fish diseases and fish food containing the material” (priority 1998, published 2003).

The test relates to Cryptocaryon irritans. The test is described as follows: Trial 1: in vitro immersion of theronts in fatty acid seawater solutions. It is filed as cell-based. To be noted: 0.5 mM in seawater, 20 degrees centigrade; listed as C8. The protocol:
For Cryptocaryon irritans, fatty acids having carbon number C2, C4 and C6-C10 were each dissolved in seawater at 0.5 mM concentration, and theronts of Cryptocaryon irritans were immersed in the seawater solutions. After 1 hour from the start of immersion, the efficacy of the fatty acids was investigated by counting the number of dead theronts. More than 200 individuals of parasites were transferred to each group.
For any of the groups, the trial was made under condition of 20 degrees centigrade.

Take `CCCCCCCC(=O)O` [octanoic acid]: the “emergence of dead theronts” value is “emerged earliest”.
